{"source": "patent US9499584B2", "about": "“GPCR with improved cell surface expression” (CANVAX BIOTECH S.L, priority 2012, dated 2016)", "key": {"RBL-2H3": {"test_system": "RBL-2H3", "assay": "Influence of VGS mutations on surface expression of human HTR1B in RBL-2H3 cells, flow cytometry after magnetic bead separation (Example 4)", "assay_type": "cell-based", "conditions": "for Median fluorescence intensity of positive cells, x-median (range) / Percentage of positive cells after selection (range): human HTR1B, MoMLV5′LTR promoter, RBL-2H3, triplicate; for Percentage of positive cells after selection (range): magnetic bead separated", "description": "Vectors were developed for stable expression of human HTR1B without the methionine at position 1 in mammalian cells under the control of Moloney Leukaemia virus 5′-LTR promoter (MoMLV5′LTR, SEQ ID NO: 6). All vectors had the neomycin resistance gene for selection of stable eukaryotic cells and mouse immunoglobulin kappa signal peptide followed by a c-myc tag (EQKLISEEDLN peptide). Vectors included no VGS, native VGS or two VGS mutants (VGS mutant 1 and VGS mutant 2). This experiment was designed to test if serine and threonine at VGS which represent potential […] glycosylation sites are the molecular determinants of improved surface expression. In VGS mutant 1 all 5 serine and threonine were mutated to alanine while in VGS mutant 2 all serine were mutated and 2 threonines were still present.\nEach vector was individually electroporated by triplicate using a microporator (Digital Bio Technology, South Korea) into RBL-2H3 and after 48 hours neomycin at 500 ug/mL was added to culture for selection. After selection for about 2 weeks cells were analysed by flow cytometry (Guava Technologies, USA) with anti-cmyc tag antibody (anti-cmyc-FITC, clone 9E10, Sigma-Aldrich, USA) for surface expression. Selected cells were separated by using magnetic beads from Miltenyi and anti-cmyc tag. Results were expressed as percentage of positive cells after subtraction of values from non transfected RBL-2H3 cells incubated with the same anti-cmyc tag antibody. For positive cells median fluorescence intensity (x-median) was taken as a marker of surface receptor density on the surface of positive cells."}, "HEK293 cells": {"test_system": "HEK293 cells", "assay": "Surface expression of human HTR1B in stably transfected HEK293 cells, flow cytometry with anti-cmyc tag antibody (Example 3)", "assay_type": "cell-based", "conditions": "HEK293, MoMLV5′LTR promoter", "description": "Vectors were developed for stable expression of GPCRs in mammalian cells under the control of the following promoters: Moloney Leukaemia virus 5′-LTR (MoMLV5′LTR, SEQ ID NO: 6), human phosphoglycerate kinase promoter (SEQ ID NO: 4) and human elongation factor 1 alpha promoter (hEF1alpha, SEQ ID NO: 3). All vectors had the neomycin resistance gene for selection of stable eukaryotic cells, mouse immunoglobulin kappa signal peptide followed by a c-myc tag (EQKLISEEDLN peptide), a sequence derived from a heterologous viral-GPCR (VGS, SEQ ID NO: 2) and the entire human HTR1B without the methionine at position 1. Such heterologous viral-GPCR derived sequence was included to test if surface expression is improved by certain heterologous viral-GPCR derived sequences in non-hematopoietic cell lines. […] After selection for about 2 weeks cells were analysed by flow cytometry (Guava Technologies, USA) with anti-cmyc tag antibody (anti-cmyc-FITC, clone 9E10, Sigma-Aldrich, USA) for surface expression. Results were expressed as percentage of positive cells after subtraction of values from non transfected HEK293 cells incubated with the same anti-cmyc tag antibody. […] For positive cells mean fluorescence intensity (MFI) was taken as a marker of surface receptor density on the surface of positive cells."}, "WEHI-3B": {"test_system": "WEHI-3B", "assay": "Surface expression of HT1BR in stably transfected WEHI-3B cells, flow cytometry with anti-cmyc tag antibody (Example 2)", "assay_type": "cell-based, mouse", "description": "(§1) Vectors were developed for stable expression of GPCRs in hematopoietic cells without professional regulated exocytosis under the control of Moloney Leukaemia virus 5′-LTR (MoMLV5′LTR, SEQ ID NO: 6), a good promoter for expression of GPCRs tested previously for more than 20 different GPCRs. The vector had neomycin resistance gene for selection of stable eukaryotic cells, mouse immunoglobulin kappa signal peptide followed by a c-myc tag (EQKLISEEDLN peptide) and the entire HT1BR GPCR without the methionine at position 1. This GPCR is a prototype of a receptor that it is difficult to be expressed into RBL-2H3. Two vectors were developed: one with a heterologous viral-GPCR derived sequence (VGS) and one without VGS. Each vector was individually electroporated using a microporator (Digital Bio Technology, South Korea) into WEHI-3B, a mouse myelomonocytic leukaemia cell line (DSMZ, ACC26) and into BW5147.G.1.4.ovar.1, a mouse lymphoma T cell line (HPA cultures, Cat. No. 88100507) and after 48 hours neomycin was added to culture for selection. After selection for about 2 weeks cells were analysed by flow cytometry (Guava Technologies, USA) with anti-cmyc tag antibody (anti-cmyc-FITC, clone 9E10, Sigma-Aldrich, USA) for surface expression."}, "BW5147.G.1.4.ovar.1": {"test_system": "BW5147.G.1.4.ovar.1", "assay": "Surface expression of HT1BR in stably transfected BW5147 cells, flow cytometry with anti-cmyc tag antibody (Example 2)", "assay_type": "cell-based, mouse", "conditions": "MoMLV5′LTR promoter", "description": "as §1"}}, "data": [{"substance": "LSTMAPGSTVGT [VGS native]", "values": [{"measurement": "Increase of median fluorescence intensity of positive cells versus no VGS", "setting": "RBL-2H3; RBL-2H3, MoMLV5′LTR promoter", "result": 2.6, "unit": "fold"}, {"measurement": "Median fluorescence intensity of positive cells, x-median (range)", "setting": "RBL-2H3", "result": "89.3 (87.7-90.9)"}, {"measurement": "Percentage of positive cells after selection (range)", "setting": "RBL-2H3", "result": "50.2 (49.2-51.1) %"}, {"measurement": "Percentage of positive cells after selection (range)", "setting": "RBL-2H3; listed as native VGS", "result": 50, "unit": "%"}, {"measurement": "Median fluorescence intensity of positive cells, x-median (range)", "setting": "RBL-2H3; listed as native VGS", "result": 89.3}]}, {"substance": "VGS: Heterologous viral-GPCR derived sequence (VGS, SEQ ID NO: 2) added at the amino terminus of the GPCR (CTGAGCACAATGGCCCCAGGCTCCACCGTGGGAACA; expressed or natural sequence)", "values": [{"measurement": "Improvement of percentage of positive cells by inclusion of VGS", "setting": "HEK293 cells", "result": 2.7, "unit": "fold"}, {"measurement": "Percentage of positive cells after selection", "setting": "WEHI-3B; HT1BR, WEHI 3B cells, about 2 weeks neomycin selection", "result": "about 50%"}, {"measurement": "Ratio of percentage of positive cells with VGS versus without", "setting": "WEHI-3B; WEHI-3B cells, MoMLV5′LTR promoter", "result": 1.6, "unit": "times"}, {"measurement": "Ratio of percentage of cells with surface expression with VGS versus without", "setting": "BW5147.G.1.4.ovar.1", "result": "about 15 times"}]}, {"substance": "LAAMAPGATVGT [VGS mutant 2, all serine mutated, 2 threonines still present]", "values": [{"measurement": "Reduction of median fluorescence intensity versus native VGS", "setting": "RBL-2H3; RBL-2H3, MoMLV5′LTR promoter", "result": 1.43, "unit": "fold"}, {"measurement": "Percentage of positive cells after selection (range)", "setting": "RBL-2H3", "result": "49.2 (48.2-50.2) %"}]}, {"substance": "LAAMAPGAAVGA [VGS mutant 1, all 5 serine and threonine mutated to alanine]", "values": [{"measurement": "Median fluorescence intensity of positive cells, x-median (range)", "setting": "RBL-2H3", "result": "45.6 (44.9-46.2)"}, {"measurement": "Percentage of positive cells after selection (range)", "setting": "RBL-2H3", "result": "49.1 (47.5-50.7) %"}]}]}
